Assay results from patent US20100184675A1, “USE OF GLUCAGON (1-29) ALONE OR IN COMBINATION WITH NEUROPEPTIDE W30 AS A THERAPEUTIC AGENT” (priority 2007, published 2010).
Ends that are not written are not given here.

Test system: drug-resistant Mycobacterium tuberculosis
Test: Mycobacterium tuberculosis assay
Type: cell-based
Conditions: 10 micrograms per ml; seven days; strain resistant to PAS, streptomycin, INH; combination 0.95:1.05 mole and all other molar ratios from 1:100 to 100:1

Substance: Trp-Tyr-Lys-His-Val-Ala-Ser-Pro-Arg-Tyr-His-Thr-Val-Gly-Arg-Ala-Ala-Gly-Leu-Leu-Met-Gly-Leu-Arg-Arg-Ser-Pro-Tyr-Leu-Trp-OH (WYKHVASPRYHTVGRAAGLLMGLRRSPYLW-OH) [Peptide 2, Neuropeptide W-30, commercially available known peptide]
- inhibition of the growth of Mycobacterium tuberculosis: 100%
